From US8178506B2, “Oligomeric compounds and compositions for use in modulation of small non-coding RNAs” (Regulus Therapeutics Inc., priority 2003, dated 2012)
In the oligonucleotide strings, read from the 5' end, every base follows the letter of its sugar. An asterisk marks phosphorothioate; unmarked linkages are phosphodiester. Other units and linkages are bracketed, terminal groups are in braces. A string of capitals states the bases alone. e = 2'-O-(2-methoxyethyl) (MOE); [5mC] = 5-methylcytosine; d = 2'-deoxy (DNA)

Tests used:
HeLa cells = assay: Cell cycle assay in HeLa cells; type: cell-based, human; conditions: for % cells aneuploid / % cells in cell cycle phase G1 / % cells in cell cycle phase G2/M / % cells in cell cycle phase S / % cells in cell cycle phase subG1 / % cells in cell cycle phase: G1 / % cells in cell cycle phase: G2/M / % cells in cell cycle phase: S / % cells in cell cycle phase: aneuploid / % cells in cell cycle phase: subG1: HeLa cells, 150 nM oligomeric compound; for % cells aneuploid / % cells in cell cycle phase G1 / % cells in cell cycle phase G2/M / % cells in cell cycle phase S / % cells in cell cycle phase subG1: relative to untreated control (UTC = 100); for % cells in cell cycle phase: G1 / % cells in cell cycle phase: G2/M / % cells in cell cycle phase: S / % cells in cell cycle phase: aneuploid / % cells in cell cycle phase: subG1: 48 hours after treatment, relative to untreated control (UTC=100); for phase of the cell cycle in which cells arrest or delay: HeLa, 150 nM
T47D cells = assay: Caspase-3 activity assay (apoptosis) in T47D cells; conditions: for Fold Increase over UTC (caspase-3 activity, apoptosis): 200 nM oligomeric compound; for Fold Increase over UTC (caspase-3 activity, apoptosis) / Fold Increase over UTC (caspase activity): 48 hours; for Fold Increase over UTC (caspase activity) / apoptosis in T47D cells: 200 nM; for Fold Increase over UTC (caspase activity): relative to untreated control; for apoptosis in T47D cells: caspase assay, conclusion from Tables 9-12
[1] = tested on: BJ, B16-F10, T47D, T47Dp53 and HeLa cells; assay: Cell cycle assay (propidium iodide flow cytometry), cell line panel; type: cell-based; conditions: for G1 (percentage of cells in phase of the cell cycle) / G2/M (percentage of cells in phase of the cell cycle) / S (percentage of cells in phase of the cell cycle) / SubG1 (percentage of cells in phase of the cell cycle) / aneuploid (percentage of cells): 150 nM oligomeric compound, 4.5 μg/ml LIPOFECTIN, after 72 hours, propidium iodide flow cytometry; for percentage of aneuploid cells: 150 nM, 72 hours (Table 29)
Glut4 = Glut4 mRNA expression in adipocytes (real-time PCR); type: cell-based, human; conditions: differentiating adipocytes transfected with oligomeric compound
aP2 = aP2 mRNA expression in adipocytes (real-time PCR); type: cell-based, human; conditions: differentiating adipocytes transfected with oligomeric compound
HSL = HSL mRNA expression in adipocytes (real-time PCR); type: cell-based, human; conditions: differentiating adipocytes transfected with oligomeric compound
PPARγ = PPARγ mRNA expression in adipocytes (real-time PCR); type: cell-based, human; conditions: differentiating adipocytes transfected with oligomeric compound
adipocytes = assay: Triglyceride accumulation assay in adipocytes; type: cell-based, human; conditions: for TG (triglyceride accumulation): differentiating adipocytes transfected with oligomeric compound
[2] = T47D cells, experiment of Table 12
[3] = T47D cells, experiment of Table 10

| Substance | % cells aneuploid (HeLa cells; 24 hours) [%] | % cells in cell cycle phase G1 (HeLa cells; 24 hours) [%] | % cells in cell cycle phase G2/M (HeLa cells; 24 hours) [%] | % cells in cell cycle phase S (HeLa cells; 24 hours) [%] | % cells in cell cycle phase subG1 (HeLa cells; 24 hours) [%] | % cells in cell cycle phase: G1 (HeLa cells) [%] | % cells in cell cycle phase: G2/M (HeLa cells) [%] | % cells in cell cycle phase: S (HeLa cells) [%] | % cells in cell cycle phase: aneuploid (HeLa cells) [%] | % cells in cell cycle phase: subG1 (HeLa cells) [%] | Fold Increase over UTC (caspase-3 activity, apoptosis) (T47D cells; [2]) [fold] | G1 (percentage of cells in phase of the cell cycle) [1] [%] | G2/M (percentage of cells in phase of the cell cycle) [1] [%] | S (percentage of cells in phase of the cell cycle) [1] [%] | SubG1 (percentage of cells in phase of the cell cycle) [1] [%] | aneuploid (percentage of cells) [1] [%] | Fold Increase over UTC (caspase activity) (T47D cells; T47D cells) | also measured |
| --- | --- | --- | --- | --- | --- | --- | --- | --- | --- | --- | --- | --- | --- | --- | --- | --- | --- | --- |
| 328388 (eT*e[5mC]*e[5mC]*e[5mC]*eA*dT*dA*dG*d[5mC]*dA*dG*dG*dG*d[5mC]*dA*eG*eA*eG*e[5mC]*e[5mC]; antisense) [compound 328388] | 85 | 110 | 115 | 83 | 120 | 99 | 102 | 101 | 126 | 112 | 0.9 | 57.5 | 14.6 | 28 | 4.0 | 14.5 |  |  |
| 328394 (eG*eT*eT*eT*eT*dT*dT*d[5mC]*dA*dA*dA*dT*d[5mC]*d[5mC]*d[5mC]*eA*eA*eA*e[5mC]*eT) [compound 328394] |  |  |  |  |  |  |  |  |  |  | 0.8 | 59.5 | 16 | 24.5 | 2.4 | 18.3 |  |  |
| 328400 (antisense eA*eG*eT*eT*e[5mC]*dA*dA*dA*dA*d[5mC]*dT*d[5mC]*dA*dA*dT*e[5mC]*e[5mC]*e[5mC]*eA*eA) [compound 328400] |  |  |  |  |  |  |  |  |  |  |  |  |  |  |  |  | 1.3 | GLUT4 mRNA (Glut4): 18 percentage of untreated control (UTC); AP2 mRNA (aP2): 34 percentage of untreated control (UTC); HSL mRNA (HSL): 40 percentage of untreated control (UTC); PPAR gamma mRNA (PPARγ): 67 percentage of untreated control (UTC); TG (triglyceride accumulation) (adipocytes): 60 percentage of untreated control (UTC) |
| 328417 (antisense eT*eA*eA*eT*eT*dT*dT*dA*dG*dA*dA*dT*d[5mC]*dT*dT*eA*eA*e[5mC]*eG*e[5mC]) [compound 328417] |  |  |  |  |  |  |  |  |  |  |  |  |  |  |  |  | 1.0 | GLUT4 mRNA (Glut4): 68 percentage of untreated control (UTC); AP2 mRNA (aP2): 87 percentage of untreated control (UTC); HSL mRNA (HSL): 98 percentage of untreated control (UTC); PPAR gamma mRNA (PPARγ): 94 percentage of untreated control (UTC); TG (triglyceride accumulation) (adipocytes): 83 percentage of untreated control (UTC) |
| 328419 (antisense eT*eG*eT*eT*eG*d[5mC]*d[5mC]*dT*dA*dA*d[5mC]*dG*dA*dA*d[5mC]*eA*e[5mC]*eA*eG*eA) [compound 328419] | 77 | 109 | 124 | 79 | 87 | 99 | 107 | 96 | 112 | 83 | 0.7 | 51.2 | 16.3 | 32.5 | 6.0 | 17.9 |  |  |
| 328421 (antisense eG*e[5mC]*eT*eT*eA*dG*d[5mC]*dT*dG*dT*dG*dT*d[5mC]*dT*dT*eA*e[5mC]*eA*eG*e[5mC]) [compound 328421] | 70 | 47 | 200 | 105 | 288 | 30 | 198 | 202 | 64 | 1103 |  |  |  |  |  |  | 1.2 |  |
| 328424 (antisense eA*eG*eG*eA*eA*dG*d[5mC]*dA*d[5mC]*dA*d[5mC]*dA*dT*dT*dA*eT*e[5mC]*eA*e[5mC]*eA) [compound 328424] | 74 | 110 | 112 | 85 | 60 | 103 | 101 | 91 | 111 | 89 |  | 61.9 | 14.4 | 23.7 | 3.1 | 16.9 | 0.9 |  |
| 328434 (antisense e[5mC]*eG*e[5mC]*eA*eT*d[5mC]*dT*dT*dG*dA*d[5mC]*dT*dG*dT*dA*eG*e[5mC]*eA*eT*eG) [compound 328434] |  |  |  |  |  |  |  |  |  |  | 0.8 |  |  |  |  |  |  | GLUT4 mRNA (Glut4): 83 percentage of untreated control (UTC); AP2 mRNA (aP2): 85 percentage of untreated control (UTC); HSL mRNA (HSL): 96 percentage of untreated control (UTC); PPAR gamma mRNA (PPARγ): 79 percentage of untreated control (UTC); TG (triglyceride accumulation) (adipocytes): 91 percentage of untreated control (UTC) |
| 328436 (antisense eG*eA*eA*eA*eA*dT*dT*dA*dT*dA*dT*dT*dG*dA*d[5mC]*eT*e[5mC]*eT*eG*eA) [compound 328436] |  |  |  |  |  |  |  |  |  |  |  | 59.2 | 13.9 | 26.9 | 3.5 | 17.4 |  | Fold Increase over UTC (caspase-3 activity, apoptosis) (T47D cells; [3]): 0.9 fold |
| 328647 (eG*eG*eA*eG*eT*dA*dG*dA*dT*dG*dA*dT*dG*dG*dT*eT*eA*eG*e[5mC]*e[5mC]; antisense) [compound 328647] | 140 | 101 | 119 | 92 | 140 | 69 | 118 | 153 | 136 | 589 |  |  |  |  |  |  | 0.9 |  |
| 328651 (eG*eG*eT*eA*eA*dG*dA*dG*dG*dA*dT*dG*d[5mC]*dG*d[5mC]*eT*eG*e[5mC]*eT*e[5mC]; antisense) [compound 328651] |  |  |  |  |  |  |  |  |  |  |  |  |  |  |  |  |  | GLUT4 mRNA (Glut4): 78 percentage of untreated control (UTC); Fold Increase over UTC (caspase-3 activity, apoptosis) (T47D cells; [3]): 0.9 fold; AP2 mRNA (aP2): 84 percentage of untreated control (UTC); HSL mRNA (HSL): 109 percentage of untreated control (UTC); PPAR gamma mRNA (PPARγ): 106 percentage of untreated control (UTC); TG (triglyceride accumulation) (adipocytes): 93 percentage of untreated control (UTC) |
| 328697 (eG*e[5mC]*eT*eT*eG*dT*d[5mC]*d[5mC]*dA*d[5mC]*dA*d[5mC]*dA*dG*dT*eT*e[5mC]*eA*eA*e[5mC]; antisense) [compound 328697] |  |  |  |  |  |  |  |  |  |  | 1.0 | 57.6 | 16 | 26.4 | 2.4 | 13.5 |  |  |
| GCTGACCTTTTTGCTTCTCA (sugars from the 5' end e5 d10 e5, all phosphorothioate, methylation of C not given here) [ISIS 138648, 5-10-5 2′-MOE gapmer PS targeting the human Dicer mRNA] |  |  |  |  |  |  |  |  |  |  |  |  |  |  |  |  |  | increase in caspase activity (T47D cells; T47D cells): 41%; triglyceride accumulation (adipocytes; preadipocytes, 250 nM, day nine): decreased triglyceride production |
| ISIS 328394: oligomeric compound targeting mir-181a (eG*eT*eT*eT*eT*dT*dT*d[5mC]*dA*dA*dA*dT*d[5mC]*d[5mC]*d[5mC]*eA*eA*eA*e[5mC]*eT) |  |  |  |  |  |  |  |  |  |  |  |  |  |  |  |  |  | apoptosis in T47D cells (T47D cells): prevent or have a protective effect from apoptosis; percentage of aneuploid cells [1]: higher than average percentages of aneuploid cells |
| ISIS 328396: oligomeric compound targeting mir-205 (e[5mC]*eT*eG*eG*eT*dT*dG*dG*dG*dT*dA*dT*dG*dA*dG*eA*e[5mC]*eA*eG*eA) |  |  |  |  |  |  |  |  |  |  |  |  |  |  |  |  |  | apoptosis in T47D cells (T47D cells): prevent or have a protective effect from apoptosis; percentage of aneuploid cells [1]: higher than average percentages of aneuploid cells |
| ISIS 328421: 5-10-5 2′-MOE gapmer PS; targets mir-30d pri-miRNA (eG*e[5mC]*eT*eT*eA*dG*d[5mC]*dT*dG*dT*dG*dT*d[5mC]*dT*dT*eA*e[5mC]*eA*eG*e[5mC]) |  |  |  |  |  |  |  |  |  |  |  |  |  |  |  |  |  | phase of the cell cycle in which cells arrest or delay (HeLa cells; 24 hours): G2/M-phase; phase of the cell cycle in which cells arrest or delay (HeLa cells; 48 hours): S- and G2/M-phases; apoptosis in T47D cells (T47D cells): induce apoptosis |
